# Assay results published in US20250171457A1, “NITROGEN-CONTAINING HETEROCYCLIC COMPOUND HAVING NRF2 ACTIVATION EFFECT” (CHUGAI SEIYAKU KABUSHIKI KAISHA, priority 2022, published 2025).
# pEC50: −log10 of the molar value.
# Tested on: Nrf2 transcriptional activity (pARE-Luc reporter) in HepG2 cells
# Experiment: In vitro Nrf2 transcriptional activity measurement by ARE-dependent reporter assay in HepG2 cell
# Type: cell-based, human
# Details: Homo sapiens; HepG2 cells transfected with pARE-Luc, 4 hours at 37° C.; luciferase activity of Example 1-54 or Example 17-23 at 3.75 μM defined as 100%
# Method in brief: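 HepG2 cells transfected with pGL4.37 (pARE-Luc), replated onto compound and incubated 4 h at 37° C; luciferase read by Bright-Glo luminescence. Response normalized to 100% set by a reference compound at 3.75 μM; EC50 from dose-response curve.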
row,Compound,pEC50
1,"Cn1ncc2c(Cl)c(C(=O)N3COc4c(cccc4-c4ccc(C(=O)O)c(N5CCOCC5)c4)C3)ccc21 [Compound 13-6, 4-[3-(4-Chloro-1-methylindazole-5-carbonyl)-2,4-dihydro-1,3-benzoxazin-8-yl]-2-morpholin-4-ylbenzoic acid]",8.12
2,"Cn1nnc(-c2cc(Cl)c(C(=O)N3COc4c(cccc4-c4cc(N5C6CCC5COC6)c(C(=O)O)cc4F)C3)c(Cl)c2)n1 [Compound 16-9, 4-[3-[2,6-Dichloro-4-(2-methyltetrazol-5-yl)benzoyl]-2,4-dihydro-1,3-benzoxazin-8-yl]-5-fluoro-2-(3-oxa-8-azabicyclo[3.2.1]octan-8-yl)benzoic acid]",7.92
3,"O=C(O)c1cc(F)c(-c2cccc3c2OCN(C(=O)c2c(Cl)cc(N4CCN(CCO)CC4)cc2Cl)C3)cc1N1CCOCC1 [Compound 1-58, 4-[3-[2,6-Dichloro-4-[4-(2-hydroxyethyl)piperazin-1-yl]benzoyl]-2,4-dihydro-1,3-benzoxazin-8-yl]-5-fluoro-2-morpholin-4-ylbenzoic acid]",8.38
4,"COc1cc(Cl)c(C(=O)N2COc3c(cccc3-c3cc(N4CCOCC4)c(C(=O)O)cc3F)C2)cc1C1CC1 [Compound 18-2, 4-[3-(2-Chloro-5-cyclopropyl-4-methoxybenzoyl)-2,4-dihydro-1,3-benzoxazin-8-yl]-5-fluoro-2-morpholin-4-ylbenzoic acid]",8.24
5,"Cn1cc(-c2cc(Cl)c(C(=O)N3COc4c(cccc4-c4cc(N5C6CCC5COC6)c(C(=O)O)cc4F)C3)c(Cl)c2)c2nccnc21 [Compound 3-21, 4-[3-[2,6-Dichloro-4-(5-methylpyrrolo[2,3-b]pyrazin-7-yl)benzoyl]-2,4-dihydro-1,3-benzoxazin-8-yl]-5-fluoro-2-(3-oxa-8-azabicyclo[3.2.1]octan-8-yl)benzoic acid]",8.19
6,O=C(O)c1cc(F)c(-c2cccc3c2OCN(C(=O)c2c(Cl)cc(N4CCn5nccc5C4)cc2Cl)C3)cc1N1C2CCC1COC2 [Compound 1-39],7.74
7,"COCCN1C[C@@H]2CC[C@H]1CN2c1cc(Cl)c(C(=O)N2COc3c(cccc3-c3cc(N4C5CCC4COC5)c(C(=O)O)cc3F)C2)c(Cl)c1 [Compound 7-17, 4-[3-[2,6-Dichloro-4-[(1S,4S)-5-(2-methoxy-ethyl)-2,5-diazabicyclo[2.2.2]octan-2-yl]benzoyl]-2,4-dihydro-1,3-benzoxazin-8-yl]-5-fluoro-2-(3-oxa-8-azabicyclo[3.2.1]octan-8-yl)benzoic acid]",8.05
8,"O=C(O)c1cc(F)c(-c2cccc3c2OCN(C(=O)c2c(Cl)cc(N4CCOC4=O)cc2Cl)C3)cc1N1CCOCC1 [Compound 1-51, 4-[3-[2,6-Dichloro-4-(2-oxo-1,3-oxazolidin-3-yl)benzoyl]-2,4-dihydro-1,3-benzoxazin-8-yl]-5-fluoro-2-morpholin-4-ylbenzoic acid]",8.00
9,"O=C(O)c1ccc(-c2cccc3c2OCN(C(=O)c2c(Cl)cc(N4CCN(C5COC5)CC4)cc2Cl)C3)cc1N1CCOCC1 [Compound 1-66, 4-[3-[2,6-Dichloro-4-[4-(oxetan-3-yl)piperazin-1-yl]benzoyl]-2,4-dihydro-1,3-benzoxazin-8-yl]-2-morpholin-4-ylbenzoic acid]",8.57
10,"CC(C)(O)CCOc1cc(Cl)c(C(=O)N2COc3c(cccc3-c3ccc(C(=O)O)c(N4CCOCC4)c3)C2)c(Cl)c1 [Compound 4-45, 4-[3-[2,6-Dichloro-4-(3-hydroxy-3-methylbutoxy)benzoyl]-2,4-dihydro-1,3-benzoxazin-8-yl]-2-morpholin-4-ylbenzoic acid]",8.00
11,"COCCN1CC2CCC(C1)N2c1cc(Cl)c(C(=O)N2COc3c(cccc3-c3cc(N4C5CCC4COC5)c(C(=O)O)cc3F)C2)c(Cl)c1 [Compound 7-12, 4-[3-[2,6-Dichloro-4-[3-(2-methoxyethyl)-3,8-diazabicyclo[3.2.1]octan-8-yl]benzoyl]-2,4-dihydro-1,3-benzoxazin-8-yl]-5-fluoro-2-(3-oxa-8-azabicyclo[3.2.1]octan-8-yl)benzoic acid]",8.64
12,"O=C(O)c1cc(F)c(-c2cccc3c2OCN(C(=O)c2c(Cl)cc(N4CCN5CCOC[C@@H]5C4)cc2Cl)C3)cc1N1C2CCC1COC2 [Compound 4-13, 4-[3-[4-[(9aS)-3,4,6,7,9,9a-Hexahydro-1H-pyrazino[2,1-c][1,4]oxazin-8-yl]-2,6-dichlorobenzoyl]-2,4-dihydro-1,3-benzoxazin-8-yl]-5-fluoro-2-(3-oxa-8-azabicyclo[3.2.1]octan-8-yl)benzoic acid]",8.24
13,"COC1CC2(C1)CN(c1cc(Cl)c(C(=O)N3COc4c(cccc4-c4cc(N5C6CCC5COC6)c(C(=O)O)cc4F)C3)c3c1nc(C)n3C)C2 [Compound 19-15, 4-[3-[5-Chloro-7-(6-methoxy-2-azaspiro[3.3]heptan-2-yl)-2,3-dimethylbenzimidazole-4-carbonyl]-2,4-dihydro-1,3-benzoxazin-8-yl]-5-fluoro-2-(3-oxa-8-azabicyclo[3.2.1]octan-8-yl)benzoic acid]",8.64
14,"O=C(O)c1cc(F)c(-c2cccc3c2OCN(C(=O)c2c(Cl)cc(N4CC(F)(F)C4)cc2Cl)C3)cc1N1C2CCC1COC2 [Compound 1-19, 4-[3-[2,6-Dichloro-4-(3,3-difluoroazetidin-1-yl)benzoyl]-2,4-dihydro-1,3-benzoxazin-8-yl]-5-fluoro-2-(3-oxa-8-azabicyclo[3.2.1]octan-8-yl)benzoic acid]",8.20
15,"CO[C@H]1C[C@]2(CN(c3cc(Cl)c(C(=O)N4COc5c(cccc5-c5cc(N6C7CCC6COC7)c(C(=O)O)cc5F)C4)c(Cl)c3)[C@@H]2C)C1 [Compound 1-26, 4-[3-[2,6-Dichloro-4-[(1R,4s,6S)-6-methoxy-1-methyl-2-azaspiro[3.3]heptan-2-yl]benzoyl]-2,4-dihydro-1,3-benzoxazin-8-yl]-5-fluoro-2-(3-oxa-8-azabicyclo[3.2.1]octan-8-yl)benzoic acid]",8.85
16,"N#CC1(F)CN(c2cc(Cl)c(C(=O)N3COc4c(cccc4-c4cc(N5C6CCC5COC6)c(C(=O)O)cc4F)C3)c(Cl)c2)C1 [Compound 16-16, 4-[3-[2,6-Dichloro-4-(3-cyano-3-fluoroazetidin-1-yl)benzoyl]-2,4-dihydro-1,3-benzoxazin-8-yl]-5-fluoro-2-(3-oxa-8-azabicyclo[3.2.1]octan-8-yl)benzoic acid]",7.89
17,"COC1(OC)CC2(CN(c3cc(Cl)c(C(=O)N4COc5c(cccc5-c5cc(N6C7CCC6COC7)c(C(=O)O)cc5F)C4)c(Cl)c3)C2)C1 [Compound 5-11, 4-[3-[2,6-Dichloro-4-(6,6-dimethoxy-2-azaspiro[3.3]heptan-2-yl)benzoyl]-2,4-dihydro-1,3-benzoxazin-8-yl]-5-fluoro-2-(3-oxa-8-azabicyclo[3.2.1]octan-8-yl)benzoic acid]",8.47
18,"CC(C)Sc1cc(Cl)c(C(=O)N2COc3c(cccc3-c3ccc(C(=O)O)c(N4CCOCC4)c3)C2)c(Cl)c1 [Compound 16-10, 4-[3-(2,6-Dichloro-4-propan-2-ylsulfanylbenzoyl)-2,4-dihydro-1,3-benzoxazin-8-yl]-2-morpholin-4-ylbenzoic acid]",8.03
19,"CN1CCN(c2cc(Cl)c(C(=O)N3COc4c(cccc4-c4cc(N5CCCC5)c(C(=O)O)cc4F)C3)c(Cl)c2)CC1 [Compound 18-6, 4-[3-[2,6-Dichloro-4-(4-methylpiperazin-1-yl)benzoyl]-2,4-dihydro-1,3-benzoxazin-8-yl]-5-fluoro-2-pyrrolidin-1-ylbenzoic acid]",8.00
